ChEMBL document CHEMBL1144270, “Carbonic anhydrase inhibitors. Interaction of isozymes I, II, IV, V, and IX with carboxylates” (Bioorg Med Chem Lett, 2005)

How the values were obtained:
[1] = target: Carbonic anhydrase 5A, mitochondrial (Homo sapiens, UniProt P35218); test: Binding affinity against human cytosolic Carbonic anhydrase V
Carbonic anhydrase 2 = Carbonic anhydrase 2 (Homo sapiens, UniProt P00918); test: Binding affinity against human cytosolic Carbonic anhydrase II
Carbonic anhydrase 9 = Carbonic anhydrase 9 (Homo sapiens, UniProt Q16790); test: Binding affinity against human cytosolic Carbonic anhydrase IX
Carbonic anhydrase 4 = Carbonic anhydrase 4 (Homo sapiens, UniProt P22748); test: Binding affinity against human cytosolic Carbonic anhydrase IV
Carbonic anhydrase 1 = Carbonic anhydrase 1 (Homo sapiens, UniProt P00915); test: Binding affinity against human cytosolic Carbonic anhydrase I (A = activator)
Sequence of Carbonic anhydrase 1 (P00915 whole entry): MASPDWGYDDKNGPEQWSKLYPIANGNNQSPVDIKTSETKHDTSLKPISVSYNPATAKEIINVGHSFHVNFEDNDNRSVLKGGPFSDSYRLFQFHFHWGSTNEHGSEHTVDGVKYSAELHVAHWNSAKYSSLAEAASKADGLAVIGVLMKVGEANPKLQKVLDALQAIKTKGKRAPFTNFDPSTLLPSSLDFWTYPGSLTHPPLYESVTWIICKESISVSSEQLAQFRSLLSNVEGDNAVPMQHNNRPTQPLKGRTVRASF

Sequence of Carbonic anhydrase 4 (P22748 whole entry): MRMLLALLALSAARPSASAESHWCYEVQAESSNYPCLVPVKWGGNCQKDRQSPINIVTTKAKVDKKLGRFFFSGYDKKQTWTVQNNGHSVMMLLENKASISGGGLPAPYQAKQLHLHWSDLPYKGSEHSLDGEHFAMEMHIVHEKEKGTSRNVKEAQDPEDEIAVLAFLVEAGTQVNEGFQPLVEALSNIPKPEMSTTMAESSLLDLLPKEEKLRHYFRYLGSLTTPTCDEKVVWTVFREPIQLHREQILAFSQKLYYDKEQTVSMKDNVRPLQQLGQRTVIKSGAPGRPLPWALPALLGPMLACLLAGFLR
Sequence of Carbonic anhydrase 5A, mitochondrial (P35218 whole entry): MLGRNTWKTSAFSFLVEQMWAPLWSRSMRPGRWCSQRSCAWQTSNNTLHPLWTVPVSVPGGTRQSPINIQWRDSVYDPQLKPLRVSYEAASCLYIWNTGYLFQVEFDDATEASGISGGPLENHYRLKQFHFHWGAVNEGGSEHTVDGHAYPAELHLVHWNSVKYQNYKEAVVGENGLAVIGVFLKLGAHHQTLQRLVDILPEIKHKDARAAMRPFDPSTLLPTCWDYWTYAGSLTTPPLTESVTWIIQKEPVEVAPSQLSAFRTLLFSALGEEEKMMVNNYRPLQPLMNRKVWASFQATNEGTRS

| SMILES | Ki [1] | Ki (Carbonic anhydrase 2) | Ki (Carbonic anhydrase 9) | Ki (Carbonic anhydrase 4) | Ki (Carbonic anhydrase 1) |
| --- | --- | --- | --- | --- | --- |
| O=C(O)c1c(F)c(F)cc(F)c1F | 1.62 mM | 0.006 mM | 0.77 mM | 74.5 µM | – |
| O=C([O-])CC(=O)[O-].[Na+].[Na+] [DISODIUM MALONATE] | 6 mM | 1.62 mM | 1.27 mM | 2.8 µM | Activator |
| O=C(O)C[C@H](O)C(=O)O [E350] | 2.49 mM | 1.87 mM | 7.42 mM | 53.7 µM | Activator |
| CC(=O)C(=O)[O-].[Na+] [PYRUVATE SODIUM] | 5.5 mM | 2.11 mM | 1.12 mM | 14.5 µM | Activator |
| CC(=O)[O-].[Na+] [SODIUM ACETATE] | 25.9 mM | 0.13 mM | > 150 mM | 550 µM | Activator |
| O=C([O-])c1ccccc1.[Na+] [SODIUM BENZOATE] | 7.01 mM | 0.03 mM | > 150 mM | 74.7 µM | Activator |
| O=C([O-])O.[Na+] [SODIUM BICARBONATE] | 82 mM | – | – | – | – |
| O=C([O-])CC(O)(CC(=O)[O-])C(=O)[O-].[Na+].[Na+].[Na+] [SODIUM CITRATE] | 1.67 mM | 2.16 mM | 4.93 mM | 0.099 µM | Activator |
| O=C[O-].[Na+] [SODIUM FORMATE] | 9.97 mM | – | – | – | Activator |
| CC(O)C(=O)[O-].[Na+] (configuration not stated) [SODIUM LACTATE] | 3.37 mM | 3.22 mM | > 150 mM | 1530 µM | Activator |
| O=C([O-])C(=O)[O-].[Na+].[Na+] [SODIUM OXALATE] | 2.23 mM | 0.99 mM | 3.28 mM | 0.099 µM | Activator |
